Laboratory results as given in PMC6263802 (Journal of natural products, 2018).
Where two headings read alike, the source gives them in different places.

Assays:
hAChE = hAChE (Homo sapiens, UniProt P22303); experiment: Inhibition of human acetylcholinesterase with acetylthiocholine; type: biochemical; conditions: for inhibition at 10 µM: read-out: hAChE % Inhibition at 10μM
hBChE = hBChE (Homo sapiens, UniProt P06276); experiment: Inhibition of human butyrylcholinesterase with butyrylthiocholine; type: biochemical; conditions: for inhibition at 10 µM: read-out: hBChE % Inhibition at 10μM
[1] = target: T1, hCE1 (human liver CE; CES1) (Homo sapiens, UniProt P23141); experiment: Inhibition of hCE1 with o-nitrophenyl acetate; type: biochemical; conditions: for hCE1 (o-NPA) Fold increase in potency: compared to the parent tanshinone
T1 sequence (P23141 18-563 limits assumed): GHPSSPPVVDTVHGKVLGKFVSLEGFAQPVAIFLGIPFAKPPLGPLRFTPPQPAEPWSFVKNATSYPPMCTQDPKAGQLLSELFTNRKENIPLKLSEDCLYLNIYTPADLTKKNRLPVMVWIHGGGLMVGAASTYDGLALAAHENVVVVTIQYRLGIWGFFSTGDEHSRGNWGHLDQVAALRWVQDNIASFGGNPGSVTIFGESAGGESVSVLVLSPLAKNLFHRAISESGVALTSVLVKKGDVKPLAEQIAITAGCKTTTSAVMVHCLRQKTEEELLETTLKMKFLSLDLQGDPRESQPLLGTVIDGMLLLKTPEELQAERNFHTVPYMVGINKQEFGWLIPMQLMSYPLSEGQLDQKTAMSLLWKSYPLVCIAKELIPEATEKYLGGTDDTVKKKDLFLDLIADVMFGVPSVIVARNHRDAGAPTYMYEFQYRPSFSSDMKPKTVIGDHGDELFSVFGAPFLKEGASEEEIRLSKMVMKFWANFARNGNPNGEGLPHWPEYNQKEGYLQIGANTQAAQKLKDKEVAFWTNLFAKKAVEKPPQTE

[2] = target: T2, hiCE (human intestinal CE; CES2) (Homo sapiens, UniProt O00748); experiment: Inhibition of hiCE with o-NPA as substrate, spectrophotometric assay; type: biochemical; conditions: compared to the parent tanshinone
T2 sequence (O00748 27-555 limits assumed): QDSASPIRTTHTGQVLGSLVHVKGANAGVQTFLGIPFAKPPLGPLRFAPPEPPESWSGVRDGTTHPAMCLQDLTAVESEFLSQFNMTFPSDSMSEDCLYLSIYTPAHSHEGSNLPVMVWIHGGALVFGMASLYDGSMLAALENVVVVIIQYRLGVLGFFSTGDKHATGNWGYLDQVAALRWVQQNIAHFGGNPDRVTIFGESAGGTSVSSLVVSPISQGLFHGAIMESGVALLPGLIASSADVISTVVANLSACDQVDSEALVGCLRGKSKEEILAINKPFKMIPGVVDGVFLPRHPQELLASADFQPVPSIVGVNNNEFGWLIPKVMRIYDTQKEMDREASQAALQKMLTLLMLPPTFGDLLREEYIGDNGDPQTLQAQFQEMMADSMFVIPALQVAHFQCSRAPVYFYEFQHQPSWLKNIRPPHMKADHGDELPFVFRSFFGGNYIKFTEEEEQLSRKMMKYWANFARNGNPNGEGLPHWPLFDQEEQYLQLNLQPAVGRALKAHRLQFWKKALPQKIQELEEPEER

hCE1 [3] = target: T3, hCE1 (Homo sapiens, UniProt P23141); type: biochemical; conditions: after pre-incubation and removal of the small molecule
T3 sequence (P23141 18-563 limits assumed): T1 sequence (P23141 18-563 limits assumed)

hiCE = target: T4, hiCE (Homo sapiens, UniProt O00748); type: biochemical; conditions: after pre-incubation and removal of the small molecule
T4 sequence (O00748 27-555 limits assumed): T2 sequence (O00748 27-555 limits assumed)

[4] = test system: U373MG cells expressing hCE1; experiment: Intracellular inhibition of oseltamivir hydrolysis; type: cell-based, human; conditions: 10μM inhibitor 10 min, then oseltamivir 20μM 30 min; versus DMSO
[5] = target: T1, hCE1 (human liver CE; CES1); conditions: read-out: hCE1 (o-NPA) Ki ± SE; parent tanshinones, previously reported; cited from earlier work
hCE1 [6] = target: T3, hCE1; experiment: MS analysis of hCE1 protein after incubation with small molecules; conditions: for Increase in mass of hCE1 after incubation: all three enzyme species, 4 at 10μM
[7] = hCE1 species of 61374 Da (first glycoform)
[8] = hCE1 species of 61537 Da (second glycoform)
[9] = hCE1 species of 61698 Da (third glycoform)

Sequence of hBChE (P06276 29-602): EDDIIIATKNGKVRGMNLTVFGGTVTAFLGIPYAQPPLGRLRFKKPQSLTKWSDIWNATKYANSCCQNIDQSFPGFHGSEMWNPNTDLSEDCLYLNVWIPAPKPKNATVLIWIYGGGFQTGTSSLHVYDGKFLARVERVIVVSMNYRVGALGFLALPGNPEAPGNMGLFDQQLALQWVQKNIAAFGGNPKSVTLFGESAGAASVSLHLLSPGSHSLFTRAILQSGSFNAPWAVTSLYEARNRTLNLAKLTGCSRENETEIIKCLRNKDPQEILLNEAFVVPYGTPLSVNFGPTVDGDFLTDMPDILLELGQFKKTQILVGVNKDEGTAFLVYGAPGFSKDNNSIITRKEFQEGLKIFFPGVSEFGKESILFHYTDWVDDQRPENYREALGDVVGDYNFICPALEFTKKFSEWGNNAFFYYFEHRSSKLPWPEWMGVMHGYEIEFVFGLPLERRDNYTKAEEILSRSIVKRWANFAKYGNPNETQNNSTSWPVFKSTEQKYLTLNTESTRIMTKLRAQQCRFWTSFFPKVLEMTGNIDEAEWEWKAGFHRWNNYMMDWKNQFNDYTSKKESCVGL
Sequence of hAChE (P22303 32-614): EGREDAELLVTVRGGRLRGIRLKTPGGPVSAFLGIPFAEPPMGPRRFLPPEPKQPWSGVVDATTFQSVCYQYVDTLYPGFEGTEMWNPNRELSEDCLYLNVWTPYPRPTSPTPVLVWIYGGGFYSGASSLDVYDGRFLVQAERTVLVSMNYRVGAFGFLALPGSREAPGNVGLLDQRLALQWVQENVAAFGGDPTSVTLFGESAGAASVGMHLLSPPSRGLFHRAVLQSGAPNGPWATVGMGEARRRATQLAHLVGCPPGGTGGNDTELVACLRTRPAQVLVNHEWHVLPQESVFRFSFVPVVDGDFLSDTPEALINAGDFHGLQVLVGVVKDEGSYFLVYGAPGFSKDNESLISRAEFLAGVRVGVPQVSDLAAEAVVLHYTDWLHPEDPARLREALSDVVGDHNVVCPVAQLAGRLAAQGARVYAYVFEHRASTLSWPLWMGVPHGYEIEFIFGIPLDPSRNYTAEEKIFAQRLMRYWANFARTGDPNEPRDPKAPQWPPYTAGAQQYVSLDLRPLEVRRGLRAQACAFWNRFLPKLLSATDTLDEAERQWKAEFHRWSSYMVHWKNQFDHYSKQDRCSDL

Row | SMILES | IC50 (hAChE) [µM] | inhibition at 10 µM (hAChE) [%] | IC50 (hBChE) [µM] | inhibition at 10 µM (hBChE) [%] | hCE1 (o-NPA) Fold increase in potency [1] | hiCE (o-NPA) Fold increase in potency [2] | Irreversibility of hCE1 inhibition (hCE1 [3]) | Irreversibility of hiCE inhibition (hiCE) | Reduction in oseltamivir hydrolysis (oseltamivir carboxylate formed) [4] | further results
1 | Cc1coc2c1C(=O)C(=O)c1c-2ccc2c1CCCC2(C)C [Compound 3, Tanshinone IIA] | > 10 | 4 | > 10 | 1 | – | – | – | – | – | –
2 | Cc1cccc2c1ccc1c3occ(C)c3c(=O)oc(=O)c21 [Compound 2, 4,9-dimethylfuro[3,2-c]naphtho[2,1-e]oxepine-1,3-dione] | – | – | – | – | 10,937 fold | 17,744 fold | irreversible inhibition | irreversible inhibition | more than 70% | –
3 | Cc1cccc2c3c(ccc12)C1=C(C(=O)C3=O)[C@@H](C)CO1 [Compound 5, Dihydro-tanshinone] | – | – | – | – | – | – | – | – | – | hAChE % Inhibition at 10μM (hAChE; 10μM inhibitor): 84%; IC50 (hAChE; read-out: hAChE IC50 ± SE, ATCh substrate): 1.95 µM; hBChE % Inhibition at 10μM (hBChE; 10μM inhibitor): 5%; IC50 (hBChE; read-out: hBChE IC50 ± SE, BTCh substrate): > 10 µM; Ki [5]: 0.398 ± 0.066 µM
4 | Cc1coc2c1c(=O)oc(=O)c1c3c(ccc12)C(C)(C)CCC3 [Compound 4, 4,9,9-trimethyl-9,10,11,12-tetrahydrofuro[3,2-c]naphtho[2,1-e]oxepine-1,3-dione] | – | – | – | – | 3,626 fold | 1,750 fold | irreversible inhibition | irreversible inhibition | more than 70% | IC50 [1]: 0.00106 µM; Irreversibility of hCE1 inhibition (hCE1 [3]; listed as A): irreversible enzyme inhibition; Irreversibility of hiCE inhibition (hiCE; listed as A): irreversible enzyme inhibition; Increase in mass of hCE1 after incubation (hCE1 [6]): 308–312 Da; Observed mass of adduct (hCE1 [6]; [7]): 312 Da; Observed mass of adduct (hCE1 [6]; [8]): 308 Da; Observed mass of adduct (hCE1 [6]; [9]): 309.8 Da
5 | C[C@H]1COc2c1c(=O)oc(=O)c1c3c(ccc21)C(C)(C)CCC3 [Compound 8, 4,9,9-trimethyl-4,5,9,10,11,12-hexahydrofuro[3,2-c]naphtho[2,1-e]oxepine-1,3-dione] | – | – | – | – | 194 fold | 188 fold | irreversible inhibition | irreversible inhibition | more than 70% | IC50 [1]: 0.00133 µM; Irreversibility of hCE1 inhibition (hCE1 [3]; listed as B): irreversible enzyme inhibition; Irreversibility of hiCE inhibition (hiCE; listed as B): irreversible enzyme inhibition
6 | O=S(=O)(F)Cc1ccccc1 [PMSF, phenylmethanesulfonyl fluoride, reference compound] | – | – | – | – | – | – | – | – | – | Increase in mass of hCE1 after incubation (hCE1 [6]): 154–157 Da
7 | Cc1cccc2c1ccc1c3c(c(=O)oc(=O)c12)[C@@H](C)CO3 [Compound 6, 4,9-dimethyl-4,5-dihydrofuro[3,2-c]naphtho[2,1-e]oxepine-1,3-dione] | – | – | – | – | 111 fold | 193 fold | irreversible inhibition | irreversible inhibition | – | Observed mass of adduct (hCE1 [6]; [7]): 288 Da; Observed mass of adduct (hCE1 [6]; [8]): 289 Da; Observed mass of adduct (hCE1 [6]; [9]): 282 Da
8 | Cc1coc2c1C(=O)C(=O)c1c-2ccc2c(C)cccc12 [Compound 1, Tanshinone I] | > 10 | 10 | > 10 | 6 | – | – | – | – | – | –
9 | C[C@H]1COC2=C1C(=O)C(=O)c1c2ccc2c1CCCC2(C)C [Compound 7, Crypto-tanshinone] | 6.41 | 44 | > 10 | 1 | – | – | – | – | – | –
